Legend:
[1] = tested on: human osteosarcoma cells (MG-63); assay: Cytotoxicity by SRB assay; assay type: cell-based; settings: MG-63 cells, 0.01 μM to 100 μM for 72 h
From the text: (§1) The anticancer activity of the described synthesized compounds against highly aggressive androgen-independent metastatic human prostate cancer cells (PC3) and osteosarcoma (MG-63) cells. The human prostate cancer cells (PC3) and human osteosarcoma cells (MG-63) were obtained from Nawah Scientific Inc. (Mokatam, Cairo, Egypt) and cultured in DMEM (Dulbecco's modified eagle's medium), Gibco, USA, supplemented with fetal bovine serum (FBS) at a concentration of 10% and 100 U/mL of penicillin and streptomycin (PS). The Cells were incubated at 37° C. in a humidified environment that contained 5% CO2.
(§2) Cells were seeded in 96-well plates as aliquots of 100 μL cell suspension and incubated in a complete media for 24 h. afterward, cells were treated with 3-(4-nitrophenyl)-5-((2-isopropyl-5-methylphenoxy)methyl)-1,2,4-oxadiazole at diverse concentrations ranging from 0.01 μM to 100 μM for 72 h. Then, cells were fixed at 4° C. for one hour with 150 μL of 10% trichloroacetic acid (TCA). […] Then, 150 μL of Tris pH 10.5 (10 mM) was added, and the absorbance was measured at 540 nm using a BMG LABTECH®-FLUOstar Omega microplate reader (Ortenberg, Germany). Half maximal inhibitory concentrations (IC50) values were calculated for each experiment using GraphPad Prism 6 software. […]
(§3) The inhibition was calculated using the following equation: Inhibition %=100−Average Viability

[2] = tested on: human prostate cancer cells (PC3); assay: Cytotoxicity by SRB assay; assay type: cell-based; settings: 0.01 μM to 100 μM for 72 h
From the text: as §1, §2, §3

Bacillus cereus = assay: Agar plate disc-diffusion, inhibition zone; assay type: cell-based; settings: 37° C., 48 h
Description: (§4) The agar plate disc-diffusion method was applied. Sterilized filter papers (6 mm in diameter) were wetted with 10 μL of a solution of 3-(4-nitrophenyl)-5-((2-isopropyl-5-methylphenoxy)methyl)-1,2,4-oxadiazole (3) to be tested, containing 10 mg/mL in DMSO, and the discs were allowed to air dry. The discs were then placed onto the surface of agar plates (nutrient agar for bacteria and Sabouraud's dextrose agar for fungi) seeded with the test organism. Each plate contained 15 mL of the agar medium, previously seeded with 0.2 mL of the broth culture of each organism pregrown for 18 hours. The plates were incubated at 37° C. for 48 h, and 72 h for fungi. The inhibition zones were measured in mm. Discs impregnated with DMSO were used as a control, and its inhibition zone was subtracted from the tested compound actual inhibition zone.

Pseudomonas aeruginosa = assay: Agar plate disc-diffusion, inhibition zone; assay type: cell-based; settings: 37° C., 48 h
Description: as §4

Staphylococcus aureus = assay: Agar plate disc-diffusion, inhibition zone; assay type: cell-based; settings: 37° C., 48 h
Description: as §4

Escherichia coli = assay: Agar plate disc-diffusion, inhibition zone; assay type: cell-based; settings: 37° C., 48 h
Description: as §4

Aspergillus flavus = assay: Agar plate disc-diffusion, inhibition zone (antifungal); assay type: cell-based; settings: 72 h for fungi
Description: as §4

[3] = tested on: Chrysosporium keratinophilum; assay: as above; assay type: cell-based; settings: 72 h for fungi
Description: as §4

different microbes = assay: Antimicrobial screening by agar plate disc-diffusion, overall statement; assay type: cell-based; settings: against different microbes (bacteria and fungi of Tables 1 and 2)
Description: as §4

[4] = A = concentration of comp. = 10,000 μg/mL
[5] = B = concentration of comp. = 30,000 μL
[6] = C = concentration of comp. = 50,000 μL
[7] = A = concentration of comp. = 10,000 μL
[8] = A = concentration of comp. = 10 mg/mL

In the case of Cc1ccc(C(C)C)c(OCc2nc(-c3ccc([N+](=O)[O-])cc3)no2)c1 [3-(4-nitrophenyl)-5-((2-isopropyl-5-methylphenoxy)methyl)-1,2,4-oxadiazole], the “antiproliferative activity (in words)” value [1] was “excellent antiproliferative activities” and the “antiproliferative activity (in words)” value [2] was “excellent antiproliferative activities”.

O=C(O)c1cn(C2CC2)c2cc(N3CCNCC3)c(F)cc2c1=O [Cip., ciprofloxacin, reference compound] gave an inhibition zone (Bacillus cereus; [4]) of 29 mm, an inhibition zone (Bacillus cereus; [5]) of 30 mm and an inhibition zone (Bacillus cereus; [6]) of 42 mm. The inhibition zone (Pseudomonas aeruginosa; [7]) was 29 mm, the inhibition zone (Pseudomonas aeruginosa; [5]) was 30 mm and the inhibition zone (Pseudomonas aeruginosa; [6]) was 53 mm. The inhibition zone (Staphylococcus aureus; [8]) was 43 mm, the inhibition zone (Staphylococcus aureus; [5]) was 44 mm and the inhibition zone (Staphylococcus aureus; [6]) was 53 mm. The inhibition zone (Escherichia coli; [7]) was 30 mm, the inhibition zone (Escherichia coli; [5]) was 39 mm and the inhibition zone (Escherichia coli; [6]) was 60 mm. It also gave an inhibition zone (Aspergillus flavus; [7]) of 29 mm, an inhibition zone (Aspergillus flavus; [5]) of 30 mm and an inhibition zone (Aspergillus flavus; [6]) of 42 mm. For the same compound, the inhibition zone [3, 7] was 29 mm, the inhibition zone [3, 5] was 30 mm and the inhibition zone [3, 6] was 53 mm.

With Cc1ccc(C(C)C)c(OCc2nc(-c3ccc([N+](=O)[O-])cc3)no2)c1 [Compound 3, 3-(4-nitrophenyl)-5-((2-isopropyl-5-methylphenoxy)methyl)-1,2,4-oxadiazole] the “antimicrobial activity (in words)” value (different microbes) was “excellent antimicrobial activities”, the melting point was 172 to 173 °C and the inhibition zone (Bacillus cereus; [4]) was 22 mm. For the same compound, the inhibition zone (Bacillus cereus; [5]) was 25 mm, the inhibition zone (Bacillus cereus; [6]) was 38 mm and the inhibition zone (Pseudomonas aeruginosa; [7]) was 26 mm. For the same compound, the inhibition zone (Pseudomonas aeruginosa; [5]) was 27 mm, the inhibition zone (Pseudomonas aeruginosa; [6]) was 43 mm and the inhibition zone (Staphylococcus aureus; [8]) was 18 mm. The inhibition zone (Staphylococcus aureus; [5]) was 23 mm, the inhibition zone (Staphylococcus aureus; [6]) was 35 mm and the inhibition zone (Escherichia coli; [7]) was 27 mm. The inhibition zone (Escherichia coli; [5]) was 36 mm, the inhibition zone (Escherichia coli; [6]) was 50 mm and the inhibition zone (Aspergillus flavus; [7]) was 20 mm. The inhibition zone (Aspergillus flavus; [5]) was 23 mm, the inhibition zone (Aspergillus flavus; [6]) was 36 mm and the inhibition zone [3, 7] was 28 mm. It also gave an inhibition zone [3, 5] of 30 mm and an inhibition zone [3, 6] of 49 mm.

From patent US11958814B1, “3-(4-nitrophenyl)-5-((2-isopropyl-5-methylphenoxy)methyl)-1,2,4-oxadiazole as an anti-cancer and antimicrobial compound” (KING FAISAL UNIVERSITY, priority 2023, dated 2024)
